From publication PMC6013238, “Development of novel NEMO-binding domain mimetics for inhibiting IKK/NF-κB activation” (PLoS Biology, 2018)
Values joined by “and” are separate entries in the source; they are usually repeats but may differ in a detail not shown here. Equal entries are not always repeated.

Tests used:
[1] = system: NF-κB DNA binding activity; assay: EMSA of NF-κB DNA binding activity in C2C12 myoblasts; type: cell-based, mouse; settings: 200 μM, 1 h, serum-free media; TNF-α 10 ng/ml 15 min
Description: To confirm that the NBD mimetics reduce IKK kinase activity, phosphorylation of IκBα by IKK in response to 10 ng/ml of TNF-α was measured by western blot at 0, 5, and 10 min after stimulation. […] To determine whether the mimetics also reduce NF-κB DNA binding activity, electrophoretic mobility shift assay (EMSA) was conducted both in vitro and in vivo. […] The addition of acetonitrile increased the stability of both ZINC compounds, especially ZINC 5 (Fig 3D).
Fig 3 Two identified small molecules reduce NF-κB DNA binding activity in vivo and in vitro. (A) Levels of p-IκBα with or without treatment in response to TNF-α were determined by western blot analysis. HEK293 cells were pretreated with DMSO, ZINC12909780 (100 μM), and ZINC5 (100 μM) for 30 min followed by the stimulation of 10 ng/ml of TNF-α for 0, 5, and 10 min. Cell lysates were prepared for immunoblot against p-IκBα. GAPDH was used as a loading control. (B) EMSA analysis detecting NF-κB DNA binding activity was performed in C2C12 myoblasts. Cells were pretreated with 200 μM of DMSO, ZINC12909780, and ZINC5 in serum-free media for 1 h. TNF-α was then added to a final concentration of 10 ng/ml and incubated for 15 min. Nuclear extract was obtained for EMSA analysis. (C) EMSA analysis assessing NF-κB DNA binding activity in vivo was performed with quadriceps from mdx mice. […]

IL-6 production = assay: Mouse IL-6 ELISA of supernatant of LPS-stimulated Raw 264.7 cells; type: cell-based; settings: LPS 1 μg/ml 24 h; for mIL-6 in supernatant (ELISA): Fig 4D; for Effect on LPS-induced IL-6 production (ELISA): 25 and 50 μM
Description: Fig 4 Modified lead NBD mimetics inhibit TNF-α- and LPS-induced NF-κB activation by disrupting the association between NEMO and IKKβ. (A) Structures of top NBD mimetics. (B) Measurement of NF-κB activation in response to TNF-α by using Dual-luciferase reporter assays. HEK293 cells cotransfected with NF-κB luciferase reporter and SV40-Renilla plasmids were pretreated with DMSO or listed small molecules at 0, 25, 50, 100, and 150 μM for 30 min, followed by the induction of TNF-α for 3 h. Data shown are representative of 2–3 independent experiments. […] Raw 264.7 cells were pretreated with indicated drugs for 30 min and then stimulated with 1 μg/ml of LPS for 2 h. Cells were then harvested for RNA extraction and qRT-PCR analysis. Drug concentrations used are as follows: IKKi VII (2 μM), 8K-NBD peptide (200 μM), SR12343 (50 μM), SR12460 (50 μM), SR12454 (50 μM), and SR11481 (50 μM). Data are representative of 2 independent experiments. […] Raw 264.7 cells pretreated with DMSO or drugs at indicated concentrations were exposed to 1 μg/ml of LPS for 24 h, and supernatant was collected for ELISA analysis of mouse IL-6. *P < 0.05; **P < 0.01. Underlying data can be found in S1 Data. HEK293, human embryonic kidney 293 cells; IKK, IκB kinase; IL-6, interleukin 6; LPS, lipopolysaccharide; NBD, NEMO-binding domain; n.d., nondetectable; NEMO, NF-κB essential modulator; NF-κB, nuclear factor κB; qRT-PCR, […] real-time polymerase chain reaction; TNF-α; tumor necrosis factor α. TEXT PRINTED IN THE PICTURE: (D) ikki VII: mIL-6 (ng/ml): n.d. | (D) SR12460: mIL-6 (ng/ml): n.d. (50μM) | (D) SR12454: mIL-6 (ng/ml): n.d. (50μM) DOUBTS OF THE COPYIST ABOUT THIS PICTURE: Panel D: the only printed results are the three "n.d." labels. They stand in place of bars and are assigned to ikki VII, SR12460 50μM and SR12454 50μM by their position on the axis. All other results are shown only as bars, with no printed numbers.
To confirm the qRT-PCR results, the levels of IL-6 production in Raw 264.7 cells activated by LPS were analyzed by ELISA.
Raw 264.7 cells were grown in 96-well plates and pretreated with vehicle, IKKi VII (2 μM), and small molecules (at indicated concentration) for 1 h, followed by the stimulation with 1 μg/ml of LPS. Supernatant was collected 24 h later for ELISA analysis. IL-6 concentration was measured using a mouse IL-6 ELISA kit (BD) according to the manufacturer’s instructions.

NF-κB activation = assay: Dual-luciferase (NF-κB firefly/SV40-Renilla) reporter assay, TNF-α-stimulated HEK293 cells; type: cell-based, human; settings: for Relative luciferase activity (NF-κB/Renilla): Fig 4B, CTRL about 1; for NF-κB luciferase activity, dose-dependent curve: Fig S1A, CTRL about 100; for IC50: Homo sapiens, HEK293, luciferase assays at 0, 25, 50, 100, 150 μM, GraphPad, read-out: IC50 of inhibition of TNF-α-mediated NF-κB activation

Compound | TNF-α-induced NF-κB DNA binding activity (EMSA) [1] | mIL-6 in supernatant (ELISA) (IL-6 production; 25 μM) | mIL-6 in supernatant (ELISA) (IL-6 production; 50 μM) [ng/mL] | Effect on LPS-induced IL-6 production (ELISA) (IL-6 production) | Relative luciferase activity (NF-κB/Renilla) (NF-κB activation; 25 μM) | Relative luciferase activity (NF-κB/Renilla) (NF-κB activation; 50 μM) | Relative luciferase activity (NF-κB/Renilla) (NF-κB activation; 100 μM) | Relative luciferase activity (NF-κB/Renilla) (NF-κB activation; 150 μM) | NF-κB luciferase activity, dose-dependent curve (NF-κB activation; 25 μM) | NF-κB luciferase activity, dose-dependent curve (NF-κB activation; 50 μM) | NF-κB luciferase activity, dose-dependent curve (NF-κB activation; 100 μM) | NF-κB luciferase activity, dose-dependent curve (NF-κB activation; 150 μM) | IC50 (NF-κB activation) [µM]
O=C(COC(=O)Cc1ccccc1F)Nc1ccc(Cl)cn1 [ZINC5] | inhibit TNF-α-induced NF-κB DNA binding activity | – | – | – | – | – | – | – | – | – | – | – | –
Nc1ncccc1C(=O)OCC(=O)Nc1ccc(Cl)cc1F [ZINC12909780] | inhibit TNF-α-induced NF-κB DNA binding activity | – | – | – | – | – | – | – | – | – | – | – | –
O=C(CNCCc1cc(F)cc(F)c1)Nc1ccc(Cl)cn1 [SR12460] | – | 1.4838 ng/mL and 1.2369 ng/mL and 1.4569 ng/mL | 0 | inhibit IL-6 secretion significantly in a dose-dependent manner | 0.1864 and 0.2241 and 0.2663 | 0.09822 and 0.1016 and 0.1003 | 0.1076 and 0.0851 and 0.1209 | 0.09311 and 0.129 and 0.1129 | 18.6398 and 22.411 and 26.6317 | 9.822 and 10.1552 and 10.0281 | 10.7557 and 8.5097 and 12.0922 | 9.311 and 12.8976 and 11.2908 | 11.3
O=C(CNc1ccc(Cl)cn1)NCCc1cccc(Br)c1 [SR12343] | – | 2.6915 ng/mL and 2.4446 ng/mL and 1.843 ng/mL | – | inhibited IL-6 production, but was not as effective as SR12460 and SR12454 | 0.621 and 0.6268 and 0.6057 | 0.3824 and 0.4086 and 0.3925 | 0.327 and 0.2292 and 0.2181 | – | 62 and 63 and 60 | 38 and 41 and 39 | 33 and 23 and 22 | – | 37
